Read-outs that look alike come from different tables or passages of the source.
Key:
[1] = system: M14 human melanoma; test: Antiproliferative activity, MTT; format: cell-based; conditions: 48 h treatment, read-out: Antiproliferative Activity (IC50 ± SD) M14
Description: (§1) U937 histiocytic lymphoma, HL60 acute promyelocytic leukemia, H1299 lung adenocarcinoma, MCF7 breast carcinoma, HT1080 fibrosarcoma, M14 melanoma, HeLa epithelial cervix carcinoma and peripheral blood B lymphocyte AHH1 human cell lines were obtained from the Deutsche Sammlung für Mikroorganismen and Zellkulturen (DSZM, Braunschweig, Germany) and were maintained in RPMI 1640 medium contained 10% fetal bovine serum (FBS), 2 mM L-glutamine, and antibiotics in a humidified atmosphere with 5% CO2 at 37 °C. HCT116 (ATCC, VA, USA) cells were propagated in Dulbecco’s modified Eagle medium (DMEM) (Euroclone, Milan, Italy) with 10% fetal bovine serum (FBS; Euroclone, Milan, Italy), 2 mM L-glutamine (Euroclone, Milan, Italy), and antibiotics (100 U/mL penicillin, 100 µg/mL streptomycin) (Euroclone, Milan, Italy). The experiments were performed with early (3–20) cell passages. Cell lines were treated with compounds at the indicated concentrations in the exponential growth phase.
(§2) Then, increasing concentrations of different compounds (ranging from 0.01 to 100 μM) were added, and cell proliferation was evaluated by a MTT assay after 48 h. Cells exposed to DMSO were used as control. The effect of compounds was evaluated using the CellTiter-Glo luminescent cell viability assay (Promega, Madison, WI, USA) according to the manufacturer’s instructions. For HCT116, 5 × 10^4 cells/well were plated in 24-well plate and treated, in duplicate, with compounds at several concentrations for 24 and 48 h of induction. After treatments, MTT solution was added for 3 h at 0.5 mg/mL, the obtained crystals were dissolved in DMSO (Sigma-Aldrich, Milan, Italy), and the absorbance was read at a wavelength of 570 nm with reader TECAN M-200. All the experiments were performed in triplicate and repeated at least three times.
(§3) IC50 values of compounds against cellular viability were determined by using nonlinear regression fitting curves with GraphPad Prism 8. The t-test used for statistical analyses was performed with GraphPad Prism 8. All the tests were one-tailed and a p-value < 0.05 was considered statistically significant.

[2] = system: H1299 human non-small cell lung carcinoma; test: Antiproliferative activity, MTT; format: cell-based; conditions: 48 h treatment, read-out: Antiproliferative Activity (IC50 ± SD) H1299
Description: as §1, §2, §3

[3] = system: HeLa epithelial cervix carcinoma; test: Antiproliferative activity, MTT; format: cell-based; conditions: Homo sapiens, 48 h treatment, read-out: Antiproliferative Activity (IC50 ± SD) HeLa
Description: as §1, §2, §3

[4] = system: HL60 APL cells; test: Antiproliferative activity, MTT; format: cell-based; conditions: Homo sapiens, HL-60, 48 h treatment, read-out: Antiproliferative Activity (IC50 ± SD) HL60
Description: as §1, §2, §3

[5] = system: HCT116 human colorectal carcinoma; test: Antiproliferative activity, MTT; format: cell-based; conditions: HCT-116, 48 h treatment, read-out: Antiproliferative Activity (IC50 ± SD) HCT116
Description: as §1, §2, §3

[6] = system: HT1080 human fibrosarcoma; test: Antiproliferative activity, MTT; format: cell-based; conditions: HT-1080, 48 h treatment, read-out: Antiproliferative Activity (IC50 ± SD) HT1080
Description: as §1, §2, §3

[7] = system: MCF-7 human breast adenocarcinoma; test: Antiproliferative activity, MTT; format: cell-based; conditions: MCF7, 48 h treatment, read-out: Antiproliferative Activity (IC50 ± SD) MCF-7
Description: as §1, §2, §3

[8] = system: U937 AML cells; test: Antiproliferative activity, MTT; format: cell-based; conditions: Homo sapiens, U-937, 48 h treatment, read-out: Antiproliferative Activity (IC50 ± SD) U937
Description: as §1, §2, §3

[9] = system: KRAS21R G-quadruplex DNA; test: FRET melting assay, G-quadruplex DNA; format: binding
Description: (§4) Experimental procedure for Fluorescence Resonance Energy Transfer (FRET) melting assay Oligonucleotides labeled at 5’ with FAM (6-carboxyfluorescein) as donor fluorophore and TAMRA (6 - carboxytetramethylrhodamine) at 3’ as the acceptor fluorophore were purchased from STAB VIDA (Portugal). Each oligonucleotide was initial ly diluted to 100 µM in water (Molecular Biology Reagent, Sigma). Stock solutions of 20 µM and subsequent dilutions were made with FRET buffer (60 mM KCl, potassium cacodylate, pH 7.4). Tagged oligonucleotides at 0.4 µM were annealed by heating at 90 -95 °C for 10 min, followed by slow cooling to room temperature. St ock solutions of compounds (1 mM) were prepared in 10% DMSO. Subsequent dilutions were performed using FRET buffer. Annealed DNA (50 µL) and test compound solutions (50 µL) were distributed across 96-well RT-PCR plates (PCR-96-FLT-C, Axygen, Inc). Fluorescence readings (performed in a 7300 RT -PCR equipment from Applied Biosystems) were taken at intervals of 0.5 °C in the range 31 –95 °C, with the temperature being maintained for 30 seconds prior to each reading. Experiments were performed in triplicate. Fina l analysis of the data was carried out with GraphPad Prism v.5.0 (GraphPad Software Inc., La Jolla, CA, USA).
(§5) The advanced curve-fitting function in GraphPad Prism (nonlinear regression fit) was used for calculation of ΔTm values. Only results with fitting r2 values > 0.75 (std error < 0.25) were considered.
(§6) Table S2. Synthetic oligonucleotides used in FRET experiments.

[10] = system: F21T G-quadruplex DNA; test: FRET melting assay, G-quadruplex DNA; format: binding
Description: as §4, §5, §6

[11] = system: luciferase reporter under methylated CMV promoter in KG-1 leukemia cells; test: CMV-luc assay in KG-1 cells; format: cell-based; conditions: KG-1 CMV-luc, vs DMSO
Description: The assay was carried out as described by Rilova et al.. The KG-1 cell line was stably transfected with the luciferase firefly (Luc^+ from pGL3 by Promega, Madison, WI, USA) reporter gene under the control of a methylated CMV promoter (from pEGFP-N1 by Clontech) and selected for the maintenance of the methylation of CMV and luciferase expression silencing (KG-1 CMV-luc). The stably integrated KG-1 CMV-luc cells are cultivated in RPMI-1640 medium (Lonza, Strasbourg, France), supplemented with 10% FCS (Lonza, Strasbourg, France) and 0.5 mg/mL of geneticin (Sigma-Aldrich, Saint-Quentin Fallavier, France), under 5% CO2, at 37 °C and seeded at 20,000 cells per well in 96-well plates. After 5 or 24 h of incubation in the presence of compounds or the solvent DMSO, the induction of the promoter is measured by quantification of luciferase with the Brite-lite assay system (PerkinElmer, Villebon-sur-Yvette, France) according to the manufacturer’s protocol. The luminescence is measured on an EnVision Multilabel Plate Reader (PerkinElmer, Villebon-sur-Yvette, France), and the data are expressed as fold induction compared to DMSO control. The mean of 2–4 experiments and its standard error are reported.

SMILES	IC50 [1] [nM]	IC50 ([2]; Homo sapiens, NCI-H1299, 48 h) [nM]	IC50 [3] [nM]	IC50 [4] [nM]	IC50 [5] [nM]	IC50 [6] [nM]	IC50 [7] [nM]	IC50 [8] [nM]	KRAS ∆Tm ([9]; 5 µM)	KRAS ∆Tm ([9]; 10 µM)	F21T ∆Tm ([10]; 5 µM)	F21T ∆Tm ([10]; 10 µM)	Luciferase Expression (Fold ± SD) ([11]; 0.5 µM) [fold]	Luciferase Expression (Fold ± SD) ([11]; 1 µM) [fold]	Luciferase Expression (Fold ± SD) ([11]; 5 µM) [fold]	Luciferase Expression (Fold ± SD) ([11]; 10 µM) [fold]	Luciferase Expression (Fold ± SD) ([11]; 25 µM) [fold]	IC50 [2] [nM]
O=C(Nc1cccc(Nc2ccnc3ccccc23)c1)c1ccc(Nc2ccnc3ccccc23)cc1 [Compound 2c]	3800 ± 700	14000 ± 1800	4200 ± 800	1900 ± 300	2300 ± 500	2600 ± 600	2200 ± 400	1500 ± 100	0 ºC	3.4 ºC	1 ºC	1.2 ºC						
O=C(Nc1cccc(Nc2ccnc3ccccc23)c1)c1cccc(Nc2ccnc3ccccc23)c1 [Compound 2b]	4700 ± 600	5300 ± 900	2000 ± 300	1600 ± 200	1500 ± 300	2700 ± 400	300 ± 60	1500 ± 100	1.0 ºC	7.7 ºC	2.8 ºC	5.0 ºC						
O=C(Nc1cccc(NC(=O)c2ccc(Nc3ccnc4ccccc34)cc2)c1)OCc1ccccc1 [Compound 4c]	4500 ± 800	6900 ± 900	7400 ± 1200	300 ± 70	17700 ± 2400	3900 ± 800		1200 ± 200	1.0 ºC	2.6 ºC	0.8 ºC	1.5 ºC	0.96 ± 0.01	0.87 ± 0.05	40.40 ± 12.75	28.51 ± 3.39	8.07 ± 1.96	
O=C(Nc1ccc(NC(=O)c2cccc(Nc3ccnc4ccccc34)c2)cc1)OCc1ccccc1 [Compound 4a]	69000 ± 8100	45000 ± 4100	77000 ± 7900	300 ± 60	23900 ± 2600	19500 ± 2800		500 ± 80	2.5 ºC	4.6 ºC	0 ºC	4.3 ºC	1.05 ± 0.12	1.02 ± 0.07	1.04 ± 0.16	1.45 ± 0.39	1.60 ± 1.00	
O=C(Nc1ccc(Nc2ccnc3ccccc23)cc1)c1cccc(Nc2ccnc3ccccc23)c1 [Compound 2a]	500 ± 80	15000	140 ± 40	200 ± 30	1000 ± 200	500 ± 90	4100 ± 700	700 ± 90	0 ºC	6.4 ºC	0 ºC	5.1 ºC	1.02 ± 0.04	1.05 ± 0.12	19.94 ± 4.26	4.66 ± 1.63	1.59 ± 0.59	14700 ± 2300
